Patent publication US4698355A, “Anti-hypertensive agents” (University of Miami, priority 1979, dated 1987)
Non-standard residues stand in square brackets, D forms with d. Residues, ends and D or L forms follow the SMILES beside them. No end group written: not given here. *: point of attachment. pGlu = O=C1CC[C@@H](C(=O)O)N1; Bz = O=C(c1ccccc1)*

Columns and labels:
ACE = details: cited from earlier work
human urinary ACE = assay: ACE activity assay (Benzoyl-GlyHisLeu substrate); assay type: biochemical; details: 0.05 M Hepes pH 8.0, 37° C.
Source text: The role of ACE in the pathogenesis of hypertension has prompted a search for inhibitors of the enzyme that could act as antihypertensive drugs. See for example U.S. Pat. Nos. 3,891,616, 3,947,575, 4,052,511 and 4,053,651. […] 6, 1977, and in scientific articles by Cushman, D. W. et al., Biochemistry 16, 5484 (1977), and by Ondetti, M. et al., Science 196, 441 (1977). […] These factors include the source of enzyme, its purity, the substrate used and its concentration, and the composition of the assay buffer. All I50 data reported herein have been performed with the same assay system and same enzyme (human urinary ACE) and with an approximately 1/2 Km level of substrate and are therefore internally consistent. Discrepancies with data obtained by other workers may be observed. Indeed such discrepancies do exist in the literature, for unknown reasons. See, for example, the I50 values for BPP9a reported by Cushman, D. W., et al., Experientia 29, 1032 (1973) and by Dorer, F. E., et al., Biochim. Biophys. Acta 429, 220 (1976).
ACE activity assay. For most experiments described herein, the enzyme was assayed in 0.05 M Hepes buffer, pH 8.0 containing 0.1 M NaCl and 0.75 M Na2 SO4. […] Enzyme was diluted in the above buffer such that 40 μl buffered enzyme was capable of hydrolyzing 13% of substrate in a 15-minute incubation at 37° C. […]

angiotensin I [1] = assay: Oral effectiveness: blood pressure response to angiotensin I in anesthetized rats; assay type: in vivo, rat; details: oral 20 μmol/kg
Protocol: (§1) Rats (210-290 g body weight) were fasted overnight and then anesthetized with intraperitoneal pentobarbital, 50-60 mg/kg. Tracheostomy was performed and the animals were ventilated mechanically. A cannula was inserted into a femoral vein for injection of angiotensin I, and a second cannula was inserted into a common carotid artery for direct measurement of arterial blood pressure. Heparin, 1,000 units, was injected via the femoral vein to prevent coagulation. Blood pressure was measured with a pressure transducer connected to a polygraph. The rats were injected with […] of angiotensin I in 20 μl of 0.9 g % NaCl; an amount of angiotensin I sufficient to raise mean arterial blood pressure by 38 mm Hg. After the responsiveness of a given rat to angiotensin I was established, the named compound at 20 μmol/kg (drug dissolved in 0.15 ml of H2 O plus 10 μl of 1 N NaHCO3), was given via a stomach tube. At timed intervals, the effects of 400 ng/kg of angiotensin I on mean arterial blood pressure were tested.

angiotensin I [2] = assay: Intravenous effectiveness: blood pressure response to angiotensin I in anesthetized rats; assay type: in vivo, rat; details: intravenous 2 μmol/kg
Protocol: as §1, with “tested. Results are shown below:” for “tested.”
Anesthetized rats were prepared as described in Example 18. After the control reponse to 400 ng/kg angiotensin I was measured for a given rat, the named compound was administered via a femoral vein. The dose was 2 μmol/kg of the named compound in 15 μl 0.01 N sodium bicarbonate. The results are shown as percent of the control response.

## C[C@H](NC(=O)[C@H](Cc1c[nH]c2ccccc12)NC(=O)[C@H](CCCCN)NC(=O)[C@@H]1CCC(=O)N1)C(=O)N1CCC[C@H]1C(=O)O [BPP5a, <GluLysTrpAlaPro] ([pGlu]KWAP-OH)
ACE
  Km relative to angiotensin I (competitive substrate): lower Km than angiotensin I

## CC(C)C[C@H](NC(=O)[C@H](Cc1cnc[nH]1)NC(=O)CNC(=O)c1ccccc1)C(=O)O [Benzoyl-GlyHisLeu] (Bz-Gly-His-Leu-OH)
Human urinary ACE
  Km: ~200 µM

## C[C@H](CSC(=O)[C@H](Cc1ccccc1)NC(=O)[C@@H]1CCC(=O)N1)C(=O)N1CCC[C@H]1C(=O)O [Example 15, N^α - [3-(Pyro-L-glutamyl-L-phenylalanylthio)-2-D-methylpropanoyl]-L-proline]
Angiotensin I [1]; 5 min
  Blood pressure response to 400 ng/kg of Angiotensin I: 66 % of Control
Angiotensin I [1]; 15 min
  Blood pressure response to 400 ng/kg of Angiotensin I: 26 % of Control
Angiotensin I [1]; 18 min
  Blood pressure response to 400 ng/kg of Angiotensin I: 26 % of Control
Angiotensin I [1]; 21 min
  Blood pressure response to 400 ng/kg of Angiotensin I: 21 % of Control
Angiotensin I [1]; 25 min
  Blood pressure response to 400 ng/kg of Angiotensin I: 21 % of Control
Angiotensin I [1]; 29 min
  Blood pressure response to 400 ng/kg of Angiotensin I: 24 % of Control
Angiotensin I [1]; 39 min
  Blood pressure response to 400 ng/kg of Angiotensin I: 18 % of Control
Angiotensin I [1]; 44 min
  Blood pressure response to 400 ng/kg of Angiotensin I: 16 % of Control
Angiotensin I [1]; 49 min
  Blood pressure response to 400 ng/kg of Angiotensin I: 16 % of Control
Angiotensin I [1]; 54 min
  Blood pressure response to 400 ng/kg of Angiotensin I: 18 % of Control
Angiotensin I [1]; 60 min
  Blood pressure response to 400 ng/kg of Angiotensin I: 18 % of Control
Angiotensin I [1]; 74 min
  Blood pressure response to 400 ng/kg of Angiotensin I: 18 % of Control
Angiotensin I [1]; 86 min
  Blood pressure response to 400 ng/kg of Angiotensin I: 21 % of Control
Angiotensin I [1]; 110 min
  Blood pressure response to 400 ng/kg of Angiotensin I: 21 % of Control
Angiotensin I [1]; 120 min
  Blood pressure response to 400 ng/kg of Angiotensin I: 26 % of Control
Angiotensin I [1]; 132 min
  Blood pressure response to 400 ng/kg of Angiotensin I: 26 % of Control
Angiotensin I [1]; 142 min
  Blood pressure response to 400 ng/kg of Angiotensin I: 26 % of Control
Angiotensin I [1]; +1 min
  Blood pressure response to 400 ng/kg of Angiotensin I: 53 % of Control
Angiotensin I [2]; 5 min
  Blood pressure response to 400 ng/kg angiotensin I: 18 % of control
Angiotensin I [2]; 11 min
  Blood pressure response to 400 ng/kg angiotensin I: 21 % of control
Angiotensin I [2]; 14 min
  Blood pressure response to 400 ng/kg angiotensin I: 24 % of control
Angiotensin I [2]; 17 min
  Blood pressure response to 400 ng/kg angiotensin I: 29 % of control
Angiotensin I [2]; 20 min
  Blood pressure response to 400 ng/kg angiotensin I: 34 % of control
Angiotensin I [2]; 24 min
  Blood pressure response to 400 ng/kg angiotensin I: 42 % of control
Angiotensin I [2]; 32 min
  Blood pressure response to 400 ng/kg angiotensin I: 47 % of control
Angiotensin I [2]; 43 min
  Blood pressure response to 400 ng/kg angiotensin I: 53 % of control
Angiotensin I [2]; 49 min
  Blood pressure response to 400 ng/kg angiotensin I: 58 % of control
Angiotensin I [2]; 56 min
  Blood pressure response to 400 ng/kg angiotensin I: 61 % of control
Angiotensin I [2]; 71 min
  Blood pressure response to 400 ng/kg angiotensin I: 71 % of control
Angiotensin I [2]; 76 min
  Blood pressure response to 400 ng/kg angiotensin I: 68 % of control
Angiotensin I [2]; 88 min
  Blood pressure response to 400 ng/kg angiotensin I: 76 % of control
Angiotensin I [2]; 99 min
  Blood pressure response to 400 ng/kg angiotensin I: 76 % of control
Angiotensin I [2]; 109 min
  Blood pressure response to 400 ng/kg angiotensin I: 74 % of control
Angiotensin I [2]; 125 min
  Blood pressure response to 400 ng/kg angiotensin I: 84 % of control
Angiotensin I [2]; +1/2 min (30 sec.)
  Blood pressure response to 400 ng/kg angiotensin I: 8 % of control

## RPPGFSPFR [bradykinin]
ACE
  Km relative to angiotensin I (competitive substrate): lower Km than angiotensin I
